Test results as given in patent US20080182842A1, “L-alanine derivatives as a5beta1 antagonists” (ASTRAZENECA AB, priority 2007, published 2008).

Molecular target: α5β1 integrin (Homo sapiens, UniProt P05556+P08648)
Test: In vitro binding assay (a): inhibition of binding of α5β1 integrin to fibronectin fragment Fn9-10 (Origen electrochemiluminescence)
Conditions: recombinant human α5β1 vs Fn9-10 ligand; geometric mean where tested more than once
Source text: (a) In Vitro Binding Assay
The assay determined the ability of compounds to inhibit binding of α5β1 integrin to a cognate ligand, a fragment of human fibronectin. The assay used Origen technology (IGEN International) to measure the compound activity. Briefly, α5β1 integrin was coated onto epoxy-paramagnetic beads (Dynal Biotech UK, Bromborough, Wirral, CH62 3QL, UK, Catalogue No 140.11) and biotinylated-fibronectin ligand was coupled to strepatividin labeled Tag-NHS-Ester (BioVeris Corporation, Witney, Oxfordshire, OX28 4GE, UK, Catalogue No 110034). The ruthenium-labeled tag emits an electrochemiluminescence signal upon stimulation which is detected by the Origen reader. Thus, interaction of integrin and ligand causes association of bead and tag, and the resulting electrochemiluminescence signal reflects the level of integrin interaction with fibronectin.
20 μg of recombinant human α5β1 was coated onto 4×10(7) epoxy-paramagnetic beads according to manufacturers instructions at 4° C. for 24 hours. Integrin coating and corresponding activity was subsequently measured for each batch but typically, 25 ng of coated protein was used per assay well.
A DNA fragment encoding the domains 9-10 (amino-acids 1325-1509) of human fibronectin (Swiss-Prot Accession No. P02751) was isolated from cDNA libraries using standard molecular biology and PCR cloning techniques. The cDNA fragment was sub-cloned into a pT73.3 expression vector containing a GST-epitope tag (developed at AstraZeneca; Bagnall et al., Protein Expression and Purification, 2003, 27: 1-11). Following expression in E. coli, the expressed protein, termed Fn9-10, was purified using the GST-tag using standard purification techniques. The recombinant Fn9-10 was subsequently biotinylated using a EZ-link Sulfo-NHS-LC-Biotinylation kit (Perbio Science UK Ltd., Cramlington, Northumberland, NE23 1WA, UK, Catalogue No. 21335) and made to give a final concentration of approximately 1 mg/ml. Tag-NHS-Ester was labeled with streptavidin by incubation at room temperature following manufacturers instructions and buffer-exchanged into PBS to give a concentration of 0.5 mg/ ml. Immediately prior to the assay, biotinylated-Fn9-10 and Streptavidin-labeled Tag were diluted in Assay Buffer to give a final concentrations of 0.6 ug/ml and 1.5 ug/ml respectively. The Fn9-10 and Tag solutions were then mixed together in equal volumes and incubated on ice for at least 30 minutes prior to the assay.
Test compounds were prepared as 10 mM stock solutions in DMSO (Sigma-Aldrich Company Ltd, Gillingham, Dorset SP8 4XT Catalogue No. 154938) and serially diluted with 4% DMSO to give a range of test concentrations at ×4 required final concentration. Aliquots (20 μl) of each compound dilution were placed into each well of a 384-well round bottomed polypropylene plate (Matrix Technologies, Wilmslow, Cheshire, SK9 3LP, Catalogue No. 4340 384). Each plate also contained control wells: maximum signal was created using wells containing 20 μl of 4% DMSO, and minimum signal corresponding to no binding was created using wells containing 20 μl of 80 mM EDTA (Sigma Catalogue No. E7889).
For the assay, 25 ng(20 ul) of a5b1-bead suspension and 40 μl of the Fn9-10/Tag pre-incubated solution were added to each well containing 20 μl of compound or control solution. Assay plates were then incubated at room temperature for a minimum of 6 hours before being analysed on an Origen plate reader. The minimum value was subtracted from all values, and the signal was plotted against compound concentration to generate IC50 data.
The data in the above table was generated in an assay substantially as described above in relation to Binding Assay (a). Some of the compounds shown in the table were tested more than once in the assay. For those compounds the IC50 value shown is the geometric mean of the measured IC50 values. […]

α5β1 integrin, sequence (P08648 42-894 limits assumed): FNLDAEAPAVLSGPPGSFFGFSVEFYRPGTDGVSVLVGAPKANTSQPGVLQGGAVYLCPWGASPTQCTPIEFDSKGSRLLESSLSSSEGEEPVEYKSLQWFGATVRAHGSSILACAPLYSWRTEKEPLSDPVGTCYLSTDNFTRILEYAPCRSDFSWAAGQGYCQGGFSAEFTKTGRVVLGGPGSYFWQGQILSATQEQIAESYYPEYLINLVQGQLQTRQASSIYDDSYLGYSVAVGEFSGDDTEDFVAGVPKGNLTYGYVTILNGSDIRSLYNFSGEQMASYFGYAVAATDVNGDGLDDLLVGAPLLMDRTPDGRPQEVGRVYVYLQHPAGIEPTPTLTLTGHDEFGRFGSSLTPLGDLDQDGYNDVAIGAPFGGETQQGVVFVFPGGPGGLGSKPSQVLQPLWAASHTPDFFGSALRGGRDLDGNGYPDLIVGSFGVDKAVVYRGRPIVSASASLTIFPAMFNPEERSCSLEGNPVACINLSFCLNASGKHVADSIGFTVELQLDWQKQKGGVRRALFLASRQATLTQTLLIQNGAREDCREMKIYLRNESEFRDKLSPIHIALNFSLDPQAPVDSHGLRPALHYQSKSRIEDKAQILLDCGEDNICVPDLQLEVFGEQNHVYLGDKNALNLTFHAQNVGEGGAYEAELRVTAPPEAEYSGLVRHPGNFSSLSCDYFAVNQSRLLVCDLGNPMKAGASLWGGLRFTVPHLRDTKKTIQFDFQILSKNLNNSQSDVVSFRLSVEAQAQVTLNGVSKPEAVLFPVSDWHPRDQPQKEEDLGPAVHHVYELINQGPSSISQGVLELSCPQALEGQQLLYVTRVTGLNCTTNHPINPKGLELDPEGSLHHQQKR
α5β1 integrin, sequence (P08648 895-1049 partner limits assumed): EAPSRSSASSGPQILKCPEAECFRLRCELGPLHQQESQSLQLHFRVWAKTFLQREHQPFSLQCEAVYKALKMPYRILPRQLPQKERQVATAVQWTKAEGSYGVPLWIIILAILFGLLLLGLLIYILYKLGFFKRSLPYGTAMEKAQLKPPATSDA
α5β1 integrin, sequence (P05556 21-798): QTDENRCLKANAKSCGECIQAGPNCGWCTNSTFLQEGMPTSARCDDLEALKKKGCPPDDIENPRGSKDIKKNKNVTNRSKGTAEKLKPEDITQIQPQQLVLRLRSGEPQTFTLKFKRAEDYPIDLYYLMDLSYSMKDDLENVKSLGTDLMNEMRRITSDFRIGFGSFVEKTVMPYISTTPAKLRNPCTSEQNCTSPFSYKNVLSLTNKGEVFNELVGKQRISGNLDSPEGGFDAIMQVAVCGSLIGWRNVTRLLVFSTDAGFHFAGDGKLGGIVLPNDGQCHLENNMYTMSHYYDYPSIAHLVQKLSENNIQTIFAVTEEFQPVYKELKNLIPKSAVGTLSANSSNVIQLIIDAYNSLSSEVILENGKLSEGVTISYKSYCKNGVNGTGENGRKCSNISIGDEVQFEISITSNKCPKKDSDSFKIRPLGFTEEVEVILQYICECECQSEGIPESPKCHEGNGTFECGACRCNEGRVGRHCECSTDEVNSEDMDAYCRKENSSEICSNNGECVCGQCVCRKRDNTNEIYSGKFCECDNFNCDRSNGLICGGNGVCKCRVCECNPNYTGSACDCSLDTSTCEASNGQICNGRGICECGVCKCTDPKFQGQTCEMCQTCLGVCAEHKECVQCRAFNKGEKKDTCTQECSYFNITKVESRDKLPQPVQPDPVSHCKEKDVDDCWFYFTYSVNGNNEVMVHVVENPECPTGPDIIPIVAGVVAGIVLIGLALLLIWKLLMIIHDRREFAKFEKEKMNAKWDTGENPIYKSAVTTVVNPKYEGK

IC50 [nM]	Compound
4	CC(C)(C(=O)N[C@@H](Cc1ccc(OCCc2ccc3c(n2)NCCO3)cc1)C(=O)O)C(=O)N1CCCC1 [Example 5.2, O-[2-(3,4-dihydro-2H-pyrido[3,2-b][1,4]oxazin-6-yl)ethyl]-N-(2,2-dimethyl-3-oxo-3-pyrrolidin-1-ylpropanoyl)-L-tyrosine]
5	COC1(C(=O)N[C@@H](Cc2ccc(OCCc3ccc4c(n3)NCCO4)cc2)C(=O)O)CCOCC1 [Example 5.3, O-[2-(3,4-dihydro-2H-pyrido[3,2-b][1,4]oxazin-6-yl)ethyl]-N-[(4-methoxytetrahydro-2H-pyran-4-yl)carbonyl]-L-tyrosine]

Second part, the molecule before the results:

Compound	IC50 [nM]
CNc1cccc(CCOc2ccc(C[C@H](NC(=O)C3CCCN3C)C(=O)O)cc2)n1 (stereo partly drawn) [Example 3, N-[(1-methylpyrrolidin-2-yl)carbonyl]-O-{2-[6-(methylamino)pyridin-2-yl]ethyl}-L-tyrosine]	107
CNc1cccc(CCOc2ccc(C[C@H](NC(=O)C3CCCN3C(C)C)C(=O)O)cc2)n1 (stereo partly drawn) [Example 4, N-[(1-isopropylpyrrolidin-2-yl)carbonyl]-O-{2-[6-(methylamino)pyridin-2-yl]ethyl}-L-tyrosine]	61
CC1(C(=O)N[C@@H](Cc2ccc(OCCc3ccc4c(n3)NCCO4)cc2)C(=O)O)CCCCC1 [Example 5.1, O-[2-(3,4-dihydro-2H-pyrido[3,2-b][1,4]oxazin-6-yl)ethyl]-N-[(1-methylcyclohexyl)carbonyl]-L-tyrosine]	11
